The values below come from patent publication US20240245659A1, “Methods of Treating Cushing's Syndrome and Liver Disorders, and of Reducing Liver Toxicity of Other Drugs Administered to a Patient” (Corcept Therapeutics Incorporated, priority 2022, published 2024).

One data set deals with CYP3A4 (Homo sapiens, UniProt P08684). The following applies: in vivo; cited from earlier work.
A further data set concerns the target CYP2C9 (Homo sapiens, UniProt P11712). The following applies: on administration; cited from earlier work.
For data set [1] the following is noted: via CYP3A and carbonyl reductase; cited from earlier work.
The next data set addresses T1, CYP2C8 (Homo sapiens, UniProt P10632).
T1 sequence (P10632 1-490): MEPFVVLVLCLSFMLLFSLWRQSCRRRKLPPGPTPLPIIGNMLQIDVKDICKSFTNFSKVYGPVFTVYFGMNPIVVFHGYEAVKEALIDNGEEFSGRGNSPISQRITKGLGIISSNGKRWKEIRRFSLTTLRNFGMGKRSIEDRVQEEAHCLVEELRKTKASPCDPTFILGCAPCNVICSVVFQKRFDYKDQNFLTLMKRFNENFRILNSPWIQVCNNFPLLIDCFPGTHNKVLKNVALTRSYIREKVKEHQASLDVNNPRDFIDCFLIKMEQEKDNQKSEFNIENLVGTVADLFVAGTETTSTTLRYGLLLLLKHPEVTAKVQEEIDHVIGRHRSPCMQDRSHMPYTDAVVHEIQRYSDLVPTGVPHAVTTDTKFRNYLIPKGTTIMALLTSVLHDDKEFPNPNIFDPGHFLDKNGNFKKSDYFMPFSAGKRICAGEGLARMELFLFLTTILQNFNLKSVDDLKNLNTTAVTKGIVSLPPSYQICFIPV
The following applies: on administration; cited from earlier work.

The target in data set [2] is T2, glucocorticoid receptor type 2 (GR) (Homo sapiens, UniProt P04150).
T2 sequence (P04150 1-777): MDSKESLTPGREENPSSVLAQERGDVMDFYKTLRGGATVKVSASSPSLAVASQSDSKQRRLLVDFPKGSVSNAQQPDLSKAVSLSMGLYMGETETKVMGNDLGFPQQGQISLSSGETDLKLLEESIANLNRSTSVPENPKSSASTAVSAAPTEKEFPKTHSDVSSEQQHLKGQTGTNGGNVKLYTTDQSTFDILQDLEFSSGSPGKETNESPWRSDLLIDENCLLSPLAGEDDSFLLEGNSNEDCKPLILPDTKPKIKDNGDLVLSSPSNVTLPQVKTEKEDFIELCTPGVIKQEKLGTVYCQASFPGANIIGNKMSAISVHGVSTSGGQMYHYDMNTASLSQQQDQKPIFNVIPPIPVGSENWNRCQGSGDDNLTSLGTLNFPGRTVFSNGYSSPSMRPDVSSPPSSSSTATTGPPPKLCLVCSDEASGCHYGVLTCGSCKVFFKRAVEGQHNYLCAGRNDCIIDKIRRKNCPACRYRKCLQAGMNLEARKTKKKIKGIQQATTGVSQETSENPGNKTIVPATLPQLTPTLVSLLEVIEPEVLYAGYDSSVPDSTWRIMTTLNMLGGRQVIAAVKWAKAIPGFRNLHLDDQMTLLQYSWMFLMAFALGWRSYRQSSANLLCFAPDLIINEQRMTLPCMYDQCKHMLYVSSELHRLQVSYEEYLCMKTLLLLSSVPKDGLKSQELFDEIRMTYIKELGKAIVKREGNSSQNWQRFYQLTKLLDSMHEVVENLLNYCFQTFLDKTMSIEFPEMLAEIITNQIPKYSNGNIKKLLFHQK
As to conditions: cited from earlier work.

Data set [3] in a line: Phase 2 Cushing's syndrome study, low-dose and high-dose groups. Format: in vivo, human. The protocol:
A multicenter, open-label study with two dose groups enrolled 34 patients (aged 18-80 years) with endogenous Cushing's Syndrome (CS) and impaired glucose tolerance or type 2 diabetes mellitus and/or uncontrolled or untreated hypertension. Patients with elevated AST or ALT (elevated defined as greater than 3-times the ULN) were excluded. These patients were treated with relacorilant at two dosage levels. The dosages for each group were escalated in 50-mg dose increments every 4 weeks. The low dose group received relacorilant beginning at a dose of 100 mg/day, escalating to dosages of 200 mg/day during the duration of the 12-week treatment. The high-dose group received relacorilant beginning at a dose of 250 mg/day, escalating to a dosage of 400 mg/day during the duration of the 16-week treatment. The P-values shown are the P-values for the mean change from baseline to last observation calculated from the Wilcoxon signed-rank test. The Efficacy Population includes all patients treated with relacorilant who had postbaseline data.

For another data set, the target named is T3, progesterone receptor (Homo sapiens, UniProt P06401).
T3 sequence (P06401 1-933): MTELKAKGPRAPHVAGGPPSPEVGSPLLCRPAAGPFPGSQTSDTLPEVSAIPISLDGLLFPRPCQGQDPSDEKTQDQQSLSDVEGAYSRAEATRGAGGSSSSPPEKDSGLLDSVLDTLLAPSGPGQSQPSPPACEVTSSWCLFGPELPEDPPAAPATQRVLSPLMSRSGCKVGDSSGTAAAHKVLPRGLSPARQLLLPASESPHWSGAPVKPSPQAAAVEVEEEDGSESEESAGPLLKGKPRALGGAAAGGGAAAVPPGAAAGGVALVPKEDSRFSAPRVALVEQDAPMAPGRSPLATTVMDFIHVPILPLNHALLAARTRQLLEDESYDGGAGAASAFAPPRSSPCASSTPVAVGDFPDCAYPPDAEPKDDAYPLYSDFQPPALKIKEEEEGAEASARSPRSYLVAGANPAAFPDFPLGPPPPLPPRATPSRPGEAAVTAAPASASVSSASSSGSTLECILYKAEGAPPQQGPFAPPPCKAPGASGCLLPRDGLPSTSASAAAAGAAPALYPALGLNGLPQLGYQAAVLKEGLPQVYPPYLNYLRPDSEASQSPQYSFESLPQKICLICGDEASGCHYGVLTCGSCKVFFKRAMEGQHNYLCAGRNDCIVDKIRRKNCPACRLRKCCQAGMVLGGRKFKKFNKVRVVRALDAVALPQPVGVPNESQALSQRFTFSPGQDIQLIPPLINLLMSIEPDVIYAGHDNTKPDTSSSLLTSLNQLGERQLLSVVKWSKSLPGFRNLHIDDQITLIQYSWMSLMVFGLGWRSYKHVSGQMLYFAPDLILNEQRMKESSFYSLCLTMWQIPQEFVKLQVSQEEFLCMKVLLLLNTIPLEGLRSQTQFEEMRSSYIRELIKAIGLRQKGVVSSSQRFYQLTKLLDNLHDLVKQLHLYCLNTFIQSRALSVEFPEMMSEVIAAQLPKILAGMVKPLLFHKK
As to conditions: cited from earlier work.

The conditions of data set [4]: Cushing's syndrome patients; cited from earlier work.
The nature of data set [5]: Phase 1 hepatic impairment study of relacorilant (moderate hepatic impairment vs matched controls). Format: in vivo, human. The protocol: A phase 1, open-label, multiple-dose study included 18 subjects (18-70 years). Of these subjects, 9 subjects had moderate hepatic impairment (Child—Pugh Class B) and 9 subjects were controls with normal hepatic function matched for age, sex, and body weight.
Relacorilant was administered at a dose of 300 mg/day for 10 days under fasted conditions. Blood samples for pharmacokinetic (PK) analysis were collected before dosing on Day 1 and from before dosing on Day 10 through 144 hours after the last dose of study drug (Day 16).
Subjects with moderate hepatic impairment were well matched for age, sex, and body weight Mean total Child-Pugh score of 7.9 (range: 7-9) in subjects with moderate hepatic impairment. Liver function was assessed by measurements of alanine aminotransferase (ALT) and aspartate aminotransferase (AST) levels.

Chain of CYP2C9 (P11712 whole entry): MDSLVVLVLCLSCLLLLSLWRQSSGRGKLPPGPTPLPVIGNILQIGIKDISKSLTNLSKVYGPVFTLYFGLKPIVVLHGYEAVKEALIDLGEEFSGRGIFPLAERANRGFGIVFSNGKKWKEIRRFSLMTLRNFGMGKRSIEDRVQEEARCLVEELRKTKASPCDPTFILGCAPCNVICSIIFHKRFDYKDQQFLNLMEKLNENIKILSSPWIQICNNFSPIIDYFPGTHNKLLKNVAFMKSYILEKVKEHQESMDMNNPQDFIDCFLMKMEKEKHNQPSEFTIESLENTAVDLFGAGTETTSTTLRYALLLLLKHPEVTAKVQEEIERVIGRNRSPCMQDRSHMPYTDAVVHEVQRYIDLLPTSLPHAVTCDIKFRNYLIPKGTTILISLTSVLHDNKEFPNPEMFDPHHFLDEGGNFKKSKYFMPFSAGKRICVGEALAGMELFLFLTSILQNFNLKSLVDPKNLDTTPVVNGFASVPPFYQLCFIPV
Chain of CYP3A4 (P08684 whole entry): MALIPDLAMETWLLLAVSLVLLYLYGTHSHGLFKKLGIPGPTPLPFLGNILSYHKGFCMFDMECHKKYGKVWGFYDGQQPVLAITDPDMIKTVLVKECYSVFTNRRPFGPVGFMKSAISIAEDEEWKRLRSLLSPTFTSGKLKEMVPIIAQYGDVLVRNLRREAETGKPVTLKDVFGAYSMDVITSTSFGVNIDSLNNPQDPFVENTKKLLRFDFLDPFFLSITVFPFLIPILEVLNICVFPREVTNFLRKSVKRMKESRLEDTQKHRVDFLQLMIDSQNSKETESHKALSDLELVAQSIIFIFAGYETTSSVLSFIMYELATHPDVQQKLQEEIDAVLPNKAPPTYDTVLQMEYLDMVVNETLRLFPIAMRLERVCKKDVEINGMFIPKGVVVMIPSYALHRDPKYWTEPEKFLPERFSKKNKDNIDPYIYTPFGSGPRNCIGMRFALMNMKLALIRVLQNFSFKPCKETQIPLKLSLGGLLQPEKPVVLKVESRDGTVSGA

Turning to `Cn1cc(S(=O)(=O)N2CCC3=Cc4c(cnn4-c4ccc(F)cc4)C[C@]3(C(=O)c3cc(C(F)(F)F)ccn3)C2)cn1` [relacorilant, (R)-(1-(4-fluorophenyl)-6-((1-methyl-1H-pyrazol-4-yl)sulfonyl)-4,4a,5,6,7,8-hexahydro-1H-pyrazolo[3,4-g]isoquinolin-4a-yl)(4-(trifluoromethyl)pyridin-2-yl)methanone], the CYP3A4 inhibition entry at CYP3A4 is “strong CYP3A4 inhibitor”. In addition, at CYP2C9, the CYP2C9 inhibition result is on record as “does not result in clinically significant inhibition”. Moreover, the route of elimination result in [1] is listed as “primarily hepatic”. Further, the CYP2C8 inhibition result at CYP2C8 is on record as “does not result in clinically significant inhibition”. In [2], the “binding to GR” value is given as “binds”. Besides, the “normalization of ALT in patients with abnormal ALT values at baseline” value in data set [3] (Cushing's syndrome patients) is on record as 2 of 4. In data set [3] (both dose groups (100-200 mg/day 12 weeks; 250-400 mg/day 16 weeks)), the “change in LFTs, baseline to last observation” value was “Reductions”. The “change in LFTs, high-dose group compared with low-dose group” value in data set [3] (high-dose group 250-400 mg/day, 16 weeks) was “greater reductions”. For the same compound, the “affinity for the progesterone receptor” value on progesterone receptor is “lacks affinity”. For the same compound, in data set [4], the “antiprogesterone effects or drug-induced hypokalemia” value is on record as “without antiprogesterone effects or drug-induced hypokalemia”; the “effect on hypertension and hyperglycemia” value is on record as “clinically meaningful improvement”; the “other cortisol-excess-related comorbidities (hypercoagulopathy, cognitive function, mood, quality of life)” value is on record as “Improvement”. In data set [5] (300 mg/day for 10 days, fasted), the “pharmacokinetic difference, moderate hepatic impairment vs matched controls” value is recorded as “No apparent difference”. The “relacorilant exposures (area under the curve and maximum plasma concentration) across both groups” value in [5] (moderate hepatic impairment vs matched controls) was “largely overlapped”. Besides, the “change in mean liver function tests (ALT, AST)” value in data set [5] (patients with moderate hepatic impairment, 300 mg/day for 10 days, fasted, baseline to Day 16) was “Reductions”.
